The text below walks through data of patent US10654860B2, “Tricyclic rho kinase inhibitors” (BRISTOL-MYERS SQUIBB COMPANY, priority 2016, dated 2020).

The structures appear in SMILES notation. Where two headings read alike, the source gives them in different places.

Assay [1] has as its system spontaneously hypertensive rat, renal hypertensive rat and deoxycortisone acetate salt hypertensive rat models. As to conditions: cited from earlier work.
Assay [2] deals with neointimal formation. As to conditions: rats, balloon injury model; cited from earlier work.
Assay [3] deals with congestive heart failure in Dahl salt-sensitive rats. As to conditions: cited from earlier work.
Assay [4] has as its system IL-1 beta-induced coronary stenosis. As to conditions: long term treatment, porcine model; cited from earlier work.
The subject of assay [5] is rat stroke model. As to conditions: cited from earlier work.
In assay [6] the target is ROCK2 (Homo sapiens (Human), UniProt O75116). As to the kind of experiment: ROCK2 kinase inhibition assay (LABCHIP peptide phosphorylation). Format: biochemical. As to conditions: 5 μM ATP, 1.5 μM peptide substrate. How it is done:
The effectiveness of compounds of the present invention as ROCK inhibitors can be determined in a 30 μL, assay containing 20 mM HEPES, pH 7.5, 20 mM MgCl2, 0.015% Brij-35, 4 mM DTT, 5 μM ATP and 1.5 μM peptide substrate (FITC-AHA-AKRRRLSSLRA-OH). Compounds were dissolved in DMSO so that the final concentration of DMSO was <2%, and the reaction was initiated with Rho kinase variants. After incubation, the reaction was terminated by the addition of EDTA and the phosphorylated and non-phosphorylated peptides separated using a LABCHIP® 3000 Reader (Caliper Life Sciences). […] Compounds were tested in dose-response format, and the inhibition of kinase activity was calculated at each concentration of compound. The inhibition data were fit using a curve-fitting program to determine the IC50; i.e., the concentration of compound required to inhibit 50% of kinase activity.
Representative Examples were tested in the ROCK2 assay described above and found having ROCK2 inhibitory activity. The ranges of the ROCK2 IC50 values are as follows: ROCK2 IC50: ++++(<10 nM)+++(10-100 nM)++(100-500 nM)+(500-2000 nM)

Sequence of ROCK2 (O75116 whole entry, species assumed): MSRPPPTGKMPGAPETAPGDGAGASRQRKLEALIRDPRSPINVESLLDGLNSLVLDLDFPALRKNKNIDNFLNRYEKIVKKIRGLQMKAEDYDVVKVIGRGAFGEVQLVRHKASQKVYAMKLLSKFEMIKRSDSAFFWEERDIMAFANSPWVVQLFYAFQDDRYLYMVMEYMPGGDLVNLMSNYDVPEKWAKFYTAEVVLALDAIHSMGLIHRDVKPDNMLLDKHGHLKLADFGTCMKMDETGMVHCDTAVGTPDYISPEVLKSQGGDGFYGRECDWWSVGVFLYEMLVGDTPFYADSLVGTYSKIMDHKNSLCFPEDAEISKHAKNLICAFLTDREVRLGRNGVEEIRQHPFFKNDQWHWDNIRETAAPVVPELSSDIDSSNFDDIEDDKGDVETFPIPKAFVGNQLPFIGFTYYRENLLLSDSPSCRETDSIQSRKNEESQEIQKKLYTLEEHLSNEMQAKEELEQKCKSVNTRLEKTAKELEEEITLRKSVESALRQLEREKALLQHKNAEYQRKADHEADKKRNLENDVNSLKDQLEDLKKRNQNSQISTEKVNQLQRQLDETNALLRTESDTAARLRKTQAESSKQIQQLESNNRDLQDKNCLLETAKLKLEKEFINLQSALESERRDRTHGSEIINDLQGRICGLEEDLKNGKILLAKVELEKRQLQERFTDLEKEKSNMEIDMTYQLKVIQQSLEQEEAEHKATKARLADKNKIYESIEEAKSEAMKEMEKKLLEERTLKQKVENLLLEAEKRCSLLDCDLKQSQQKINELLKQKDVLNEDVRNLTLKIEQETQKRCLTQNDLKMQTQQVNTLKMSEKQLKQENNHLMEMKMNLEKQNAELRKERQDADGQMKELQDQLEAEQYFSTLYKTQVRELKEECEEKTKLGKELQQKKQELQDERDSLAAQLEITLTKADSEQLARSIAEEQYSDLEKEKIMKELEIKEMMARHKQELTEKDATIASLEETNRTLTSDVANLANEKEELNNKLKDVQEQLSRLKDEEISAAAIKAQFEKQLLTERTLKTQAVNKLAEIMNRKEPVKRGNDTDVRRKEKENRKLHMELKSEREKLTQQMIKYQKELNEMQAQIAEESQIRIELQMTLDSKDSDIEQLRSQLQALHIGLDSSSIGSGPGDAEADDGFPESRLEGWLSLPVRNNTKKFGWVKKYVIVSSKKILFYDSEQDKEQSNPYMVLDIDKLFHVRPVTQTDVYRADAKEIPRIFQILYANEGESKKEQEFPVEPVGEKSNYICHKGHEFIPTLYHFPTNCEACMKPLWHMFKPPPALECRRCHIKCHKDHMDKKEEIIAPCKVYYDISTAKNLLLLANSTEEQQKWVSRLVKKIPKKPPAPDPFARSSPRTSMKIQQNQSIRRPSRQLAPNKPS

As for `C[C@@H](N)[C@H]1CC[C@H](C(=O)Nc2ccncc2)CC1` [Example Y-27632, Y-27632], the blood pressure entry in assay [1] (control rats) is on record as “only a minor effect”; in assay [1] (three rat models of hypertension), “significantly decrease”. The neointimal formation result in assay [2] is recorded as “inhibited”. Also, the “ventricular hypertrophy, fibrosis and function” value in assay [3] is listed as “improve”.

As for `O=S(=O)(c1cccc2cnccc12)N1CCCNCC1` [fasudil], in assay [4], the coronary constrictive remodeling entry is “promote a regression” and the coronary stenosis entry was “progressively reduce”. Further, in assay [5], the infarct size result was “reduce” and the neurologic deficit result is given as “reduce”.

One may read the IC50 as the concentration at which inhibition is half-maximal. As for `Cc1cc(CN2CCN(c3ccc4c(n3)OCc3n[nH]cc3-4)C2=O)ccc1F` [Example 26, 1-(2,4-dihydropyrazolo[4′,3′:4,5]pyrano[2,3-b]pyridin-7-yl)-3-(4-fluoro-3-methylbenzyl)imidazolidin-2-one], the IC50 in assay [6] was in the range of 0.1 to 0.5 µM.

Regarding `NC(=O)c1cccc(CN2CCN(c3ccc4c(n3)OCc3n[nH]cc3-4)C2=O)c1` [Example 23, ((3-(2,4-dihydropyrazolo[4′,3′:4,5]pyrano[2,3-b]pyridin-7-yl)-2-oxoimidazolidin-1-yl)methyl)benzamide], the IC50 in assay [6] lay in the range of 0.01 to 0.1 µM.

`O=C1N(Cc2c(F)cccc2F)CCN1c1ccc2c(n1)OCc1n[nH]cc1-2` [Example 33, 1-(2,6-difluorobenzyl)-3-(2,4-dihydropyrazolo[4′,3′:4,5]pyrano[2,3-b]pyridin-7-yl)imidazolidin-2-one] had an IC50 in assay [6] of 0.5 to 2 µM.

Take `COc1cc(F)cc(CN2CCN(c3ccc4c(n3)OCc3n[nH]cc3-4)C2=O)c1` [Example 18, 1-(2,4-dihydropyrazolo[4′,3′:4,5]pyrano[2,3-b]pyridin-7-yl)-3-(3-fluoro-5-methoxybenzyl)imidazolidin-2-one]: in assay [6], the IC50 fell in the range of 0.01 to 0.1 µM.

In turn, `COc1cccc(N[C@@H]2CCN(c3ccc4c(c3)CCc3n[nH]cc3-4)C2=O)c1` [Example 9, (R)-1-(4,5-dihydro-2H-benzo[e]indazol-7-yl)-3-((3-methoxyphenyl)amino)pyrrolidin-2-one] came in with an IC50 in assay [6] of less than 0.01 µM.

In assay [6], `COc1cccc(NC2CCN(c3ccc4c(c3)OCc3n[nH]cc3-4)C2=O)c1` (racemic) [Example 13, 1-(2,4-dihydrochromeno[3,4-c]pyrazol-7-yl)-3-((3-methoxyphenyl)amino)pyrrolidin-2-one] yielded an IC50 of less than 0.01 µM.

On to `O=C1N(Cc2cc(F)cc(F)c2)CCN1c1ccc2c(n1)OCc1n[nH]cc1-2` [Example 21, 1-(3,5-difluorobenzyl)-3-(2,4-dihydropyrazolo[4′,3′:4,5]pyrano[2,3-b]pyridin-7-yl)imidazolidin-2-one], for which the IC50 in assay [6] is 0.01 to 0.1 µM.

In assay [6], `O=C1N(Cc2cc(F)ccc2F)CCN1c1ccc2c(n1)OCc1n[nH]cc1-2` [Example 30, 1-(2,5-difluorobenzyl)-3-(2,4-dihydropyrazolo[4′,3′:4,5]pyrano[2,3-b]pyridin-7-yl)imidazolidin-2-one] displayed an IC50 of 0.1 to 0.5 µM.

For `COc1cccc(NC2CCN(c3ccc4c(n3)OCc3n[nH]cc3-4)C2=O)c1` (racemic) [Example 11, 1-(2,4-dihydropyrazolo[4′,3′:4,5]pyrano[2,3-b]pyridin-7-yl)-3-((3-methoxyphenyl)amino)pyrrolidin-2-one], the IC50 in assay [6] fell in the range of 0.01 to 0.1 µM.
